Experimental data published in patent US20160362693A1, “Reagents and Methods for Treating Cancer” (PeptiMed, Inc., priority 2010, published 2016).

Legend:
Format in all cases: cell-based, human
Hs832.Tc cells = assay: Viability of ovarian cells after siRNA transfection (trypan blue count); details: 50 nM siRNA, DharmaFECT, 96 hours, vs control siRNA
Experimental: (§1) Each of the five siRNA duplexes presented in Table 2 were introduced into cultures of ovarian tumor cells at a concentration of 50 nM. Briefly, fifty to one hundred thousand tumor cells were added to each well of a 6 well plate and allowed to attach to the surface and grow for 18 hours in DMEM medium containing 10% fetal bovine serum. A total of 100 pmol of each siRNA was introduced into cells using 1 microliter DharmaFECT (Thermo Scientific) reagent in 2 ml total volume of media. Cells were incubated with the siRNA for 96 hours. The viability of the ovarian tumor cells was assessed by counting cells with a hemocytometer following trypan blue exclusion staining. Each of the five sequences reduced the number of viable cells at least 40% (compared to control siRNA-treated cells) in at least one ovarian tumor cell line.

[1] = tested on: MDA-MB-231 breast tumor cells; assay: Viability of breast tumor cells after siRNA transfection (trypan blue count); parameters: dose or concentration left out as unconfirmed; details: DharmaFECT, 96 hours, vs control siRNA
[2] = tested on: OVCAR3 ovarian tumor cells; assay: Viability of ovarian tumor cells after siRNA transfection (trypan blue count); details: 50 nM siRNA, DharmaFECT, 96 hours, vs control siRNA
Experimental: as §1

[3] = tested on: SK-OV-3 ovarian tumor cells; assay: as above; details: 50 nM siRNA, DharmaFECT, 96 hours, vs control siRNA
Experimental: as §1

[4] = tested on: Caov-3 ovarian tumor cells; assay: as above; details: 50 nM siRNA, DharmaFECT, 96 hours, vs control siRNA
Experimental: as §1

[5] = tested on: UWB1.289 ovarian tumor cells; assay: as above; details: 50 nM siRNA, DharmaFECT, 96 hours, vs control siRNA
Experimental: as §1

[6] = tested on: TOV-112D ovarian tumor cells; assay: as above; details: 50 nM siRNA, DharmaFECT, 96 hours, vs control siRNA
Experimental: as §1

ES-2 ovarian tumor cells = assay: as above; details: 50 nM siRNA, DharmaFECT, 96 hours, vs control siRNA
Experimental: as §1

[7] = tested on: OV-90 ovarian tumor cells; assay: as above; details: 50 nM siRNA, DharmaFECT, 96 hours, vs control siRNA
Experimental: as §1

PA-1 ovarian tumor cells = assay: as above; details: 50 nM siRNA, DharmaFECT, 96 hours, vs control siRNA
Experimental: as §1

MCF-7 breast tumor cells = assay: Viability of breast tumor cells after siRNA transfection (trypan blue count); parameters: dose or concentration left out as unconfirmed; details: DharmaFECT, 96 hours, vs control siRNA
Experimental: as §1, with “of breast” for “of ovarian”, “serum. […]” for “serum. A total of 100 pmol of each siRNA was introduced into cells using 1 microliter DharmaFECT (Thermo Scientific) reagent in 2 ml total volume of media.”, “the breast” for “the ovarian”, “blue exclusion.” for “blue exclusion staining.”

[8] = tested on: LNCaP prostate tumor cells; assay: Viability of prostate tumor cells after siRNA transfection (trypan blue count); details: 50 nM siRNA, DharmaFECT, 96 hours, vs control siRNA
Experimental: as §1, with “prostate” for “ovarian”, “[…]” for “100 pmol”, “DharmaFECT” for “DharmaFECT (Thermo Scientific)”

PC3 prostate tumor cells = assay: as above; details: 50 nM siRNA, DharmaFECT, 96 hours, vs control siRNA
Experimental: as §1, with “prostate” for “ovarian”, “[…]” for “100 pmol”, “DharmaFECT” for “DharmaFECT (Thermo Scientific)”

ES-2 cells = assay: Concentration-dependent effect of siRNA on cell survival (IC50); details: cell viability 96 hours after adding siRNA, FIG. 6A, read-out: IC50 (concentration of siRNA that inhibited growth by 50%)
Experimental: (§2) FIG. 6A and FIG. 6B show concentration-dependent effects of siRNA against the EVI1 gene on cell survival. Ovarian tumor cells ES-2 and TOV-112D were seeded into each well of a 12 well plate. Increasing concentrations of siRNA were introduced into the cells using 1 microliter of Dharmafect reagent in 2 ml of medium. The number of viable cells was determined using trypan blue staining and counting in a hemacytometer.
(§3) For a substance to be an effective cancer therapeutic agent, it needs a robust cancer killing effect at very low concentrations, which for siRNA will be understood to be at subnanomolar concentrations in cell culture. The concentration of siRNA that inhibited growth of ovarian tumor cells by 50% (IC50) was determined by measuring cell viability 96 hours after adding one of various dose levels of siRNA to identical numbers of tumor cells in culture. […] For TOV-112D cells, the IC50 of siEVI1-979 (SEQ ID NOs 9-10) is ˜4 nM, and the IC50 of siEVI1-2910 (SEQ ID NOs 13-14) is ˜0.8 nM. To further identify potent sequences that inhibit the growth of ovarian tumor cells, sequences of up to 10 bp upstream and 10 bp downstream of siEVI1-2910 (SEQ ID NOs: 121-160) were prepared and administered to ES-2 and TOV-112D ovarian tumor cells at a concentration of 2.5 nM using DharmaFECT transfection reagent. FIG. 7A depicts the results of percent growth inhibition of TOV-112D ovarian tumor cells relative to a transfection control. […] FIG. 7B depicts the results of percent growth inhibition of ES-2 ovarian tumor cells relative to a transfection control.

TOV-112D cells = assay: as above; details: cell viability 96 hours after adding siRNA, FIG. 6B, read-out: IC50 (concentration of siRNA that inhibited growth by 50%)
Experimental: as §2, §3

siEVI1-256: siRNA duplex; sense 5′-ccagauaaaugaucagauauu-3′ SEQ ID NO: 7, antisense SEQ ID NO: 8 (sense CCAGAUAAAUGAUCAGAUAUU; antisense UAUCUGAUCAUUUAUCUGGUU; listed as RNA, chemistry not given here)
Response to siRNA (% growth inhibition) (Hs832.Tc cells): 0%
Response to siRNA (% growth inhibition) [1]: 31%
Response to siRNA (% growth inhibition) [2]: 0%
Response to siRNA (% growth inhibition) [3]: 12%
Response to siRNA (% growth inhibition) [4]: 13%
Response to siRNA (% growth inhibition) [5]: 43%
Response to siRNA (% growth inhibition) [6]: 36%
Response to siRNA (% growth inhibition) (ES-2 ovarian tumor cells): 0%
Response to siRNA (% growth inhibition) [7]: 26%
Response to siRNA (% growth inhibition) (PA-1 ovarian tumor cells): 0%
Response to siRNA (% growth inhibition) (MCF-7 breast tumor cells): 32%
Response to siRNA (% growth inhibition) [8]: 4%
Response to siRNA (% growth inhibition) (PC3 prostate tumor cells): 23%

siEVI1-979: siRNA duplex; sense 5′-gugcaaagacuguggacaauu-3′ SEQ ID NO: 9, antisense SEQ ID NO: 10 (sense GUGCAAAGACUGUGGACAAUU; antisense UUGUCCACAGUCUUUGCACUU; listed as RNA, chemistry not given here)
Response to siRNA (% growth inhibition) (Hs832.Tc cells): 0%
Response to siRNA (% growth inhibition) [1]: 14%
Response to siRNA (% growth inhibition) [2]: 60%
Response to siRNA (% growth inhibition) [3]: 42%
Response to siRNA (% growth inhibition) [4]: 34%
Response to siRNA (% growth inhibition) [5]: 14%
Response to siRNA (% growth inhibition) [6]: 79%
Response to siRNA (% growth inhibition) (ES-2 ovarian tumor cells): 63%
Response to siRNA (% growth inhibition) [7]: 16%
Response to siRNA (% growth inhibition) (PA-1 ovarian tumor cells): 0%
Response to siRNA (% growth inhibition) (MCF-7 breast tumor cells): 0%
IC50 (ES-2 cells): ~2.5 nM
IC50 (TOV-112D cells): ~4 nM
Response to siRNA (% growth inhibition) [8]: 12%
Response to siRNA (% growth inhibition) (PC3 prostate tumor cells): 8%

siEVI1-992: siRNA duplex; sense 5′-ggacaaauguucagcacuauu-3′ SEQ ID NO: 11, antisense SEQ ID NO: 12 (sense GGACAAAUGUUCAGCACUAUU; antisense UAGUGCUGAACAUUUGUCCUU; listed as RNA, chemistry not given here)
Response to siRNA (% growth inhibition) (Hs832.Tc cells): 10%
Response to siRNA (% growth inhibition) [1]: 23%
Response to siRNA (% growth inhibition) [2]: 0%
Response to siRNA (% growth inhibition) [3]: 31%
Response to siRNA (% growth inhibition) [4]: 46%
Response to siRNA (% growth inhibition) [5]: 73%
Response to siRNA (% growth inhibition) [6]: 70%
Response to siRNA (% growth inhibition) (ES-2 ovarian tumor cells): 54%
Response to siRNA (% growth inhibition) [7]: 25%
Response to siRNA (% growth inhibition) (PA-1 ovarian tumor cells): 0%
Response to siRNA (% growth inhibition) (MCF-7 breast tumor cells): 0%
Response to siRNA (% growth inhibition) [8]: 12%
Response to siRNA (% growth inhibition) (PC3 prostate tumor cells): 35%

siEVI1-2910: siRNA duplex; sense 5′-ggaauguggaggagagaauuu-3′ SEQ ID NO: 13, antisense SEQ ID NO: 14 (sense GGAAUGUGGAGGAGAGAAUUU; antisense AUUCUCUCCUCCACAUUCCUU; listed as RNA, chemistry not given here)
Response to siRNA (% growth inhibition) (Hs832.Tc cells): 0%
Response to siRNA (% growth inhibition) [1]: 21%
Response to siRNA (% growth inhibition) [2]: 73%
Response to siRNA (% growth inhibition) [3]: 12%
Response to siRNA (% growth inhibition) [4]: 47%
Response to siRNA (% growth inhibition) [5]: 67%
Response to siRNA (% growth inhibition) [6]: 85%
Response to siRNA (% growth inhibition) (ES-2 ovarian tumor cells): 92%
Response to siRNA (% growth inhibition) [7]: 23%
Response to siRNA (% growth inhibition) (PA-1 ovarian tumor cells): 0%
Response to siRNA (% growth inhibition) (MCF-7 breast tumor cells): 67%
IC50 (ES-2 cells): ~0.5 nM
IC50 (TOV-112D cells): ~0.8 nM
Response to siRNA (% growth inhibition) [8]: 46%
Response to siRNA (% growth inhibition) (PC3 prostate tumor cells): 53%

siEVI1-2994: siRNA duplex; sense 5′-augaagaaguugaagaugauu-3′ SEQ ID NO: 15, antisense SEQ ID NO: 16 (sense AUGAAGAAGUUGAAGAUGAUU; antisense UCAUCUUCAACUUCUUCAUUU; listed as RNA, chemistry not given here)
Response to siRNA (% growth inhibition) (Hs832.Tc cells): 0%
Response to siRNA (% growth inhibition) [1]: 21%
Response to siRNA (% growth inhibition) [2]: 0%
Response to siRNA (% growth inhibition) [3]: 0%
Response to siRNA (% growth inhibition) [4]: 28%
Response to siRNA (% growth inhibition) [5]: 0%
Response to siRNA (% growth inhibition) [6]: 70%
Response to siRNA (% growth inhibition) (ES-2 ovarian tumor cells): 54%
Response to siRNA (% growth inhibition) [7]: 33%
Response to siRNA (% growth inhibition) (PA-1 ovarian tumor cells): 18%
Response to siRNA (% growth inhibition) (MCF-7 breast tumor cells): 57%
Response to siRNA (% growth inhibition) [8]: 12%
Response to siRNA (% growth inhibition) (PC3 prostate tumor cells): 25%
